These are literature values, as cited in patent US10946075B1 (priority 2014, dated 2021).

One data set relates to murine neuroblastoma. Particulars: mouse, in vivo.
Data set [1] deals with mice. As to conditions: mouse, in vivo, 16 mg/kg.
For data set [2] the following is noted: in vivo.
The test system of the next data set is thyroid gland. Particulars: rat, in vivo.
The subject of the next data set is humans. Particulars: human.
Data set [3] deals with mice. Particulars: mouse, in vivo.
Data set [4] deals with dogs. As to conditions: dog, in vivo.
Data set [5] has as its system dogs. As to conditions: dog, in vivo. The source holds these as a separate data set.
The next data set has as its system rat gamete. Particulars: in vivo.
For data set [6] the following is noted: in vivo. The source holds these as a separate data set.
The next data set relates to rats. As to conditions: rat, in vivo.

Turning to `O=C(O)CCCCC1CCSS1` (stereo not drawn) [Alpha lipoic acid, Alpha Lipoic Acid], in the data set on murine neuroblastoma, the survival rate result is recorded as “about 10%”. Further, the “number of surviving animals” value in the data set with mice [1] is given as “doubled”.

Take `CC1=C(/C=C/C(C)=C/C=C/C(C)=C/C=C/C=C(C)/C=C/C=C(C)/C=C/C2=C(C)CCCC2(C)C)C(C)(C)CCC1` [Beta Carotene]: the survival in data set [2] is listed as 80%.

Take `NCCC[C@](N)(C(=O)O)C(F)F` [DFMO, alpha-difluoromethylornithine]: the radiation-induced cell death in the data set with cells is recorded as 50-60 % of control. In addition, in the data set on polyamine biosynthesis, the “putrescine and spermidine levels” value is “nondetectable levels”; the spermine decrease is 50%.

Consider `C[S+](C)[O-]` [DMSO, Dimethylsulfoxide], for which the “induction of micronuclei by bystander effect cells” value in the data set on bystander effect cells is “completely suppressed”.

On to `[I-].[K+]` [KI, Potassium iodide], for which the “131I- excreted in urine” value with thyroid gland is recorded as 30%. Further, the “approximate LD50 in humans” value in the data set with humans was ~500 mg/kg.

For the molecule `Cc1cc2nc3c(=O)[nH]c(=O)nc-3n(C[C@H](O)[C@H](O)[C@H](O)CO)c2cc1C` [riboflavin], the “mortality and DNA damages” value with mice [3] is “higher mortality rates and more DNA damages”.

Consider `O=C([O-])CC(O)(CC(=O)[O-])C(=O)[O-].[Na+].[Na+].[Na+]` [sodium citrate], for which the treated dogs survived in the data set on dogs [4] is 100%.

As for `O=C1O[C@H]([C@@H](O)CO)C(O)=C1O` [vitamin C, Ascorbic Acid], the “reduction of mortality rate” value with dogs [5] is recorded as 50%. For the same molecule, the “increase of gamete survival vs. controls (factor)” value in the data set with rat gamete is listed as 2.2. Further, the protection over control entry in the data set on hamster ovary cells is “seven-fold”.

Consider Vitamin E, for which the white cell count result in data set [6] is given as “doubled”.

B1: papain (protein, UniProt P00784 134-345, looked up)
Papain: IPEYVDWRQKGAVTPVKNQGSCGSCWAFSAVVTIEGIIKIRTGNLNEYSEQELLDCDRRSYGCNGGYPWSALQLVAQYGIHYRNTYPYEGVQRYCRSREKGPYAAKTDGVRQVQPYNEGALLYSIANQPVSVVLEAAGKDFQLYRGGIFVGPCGNKVDHAVAAVGYGPNYILIKNSWGTGWGENGYIRIKRGTGNSYGVCGLYTSSFYPVKN
For the molecule B1, in the data set with rats, the survival is on record as 50%.
